Test results as given in patent publication US20050227355A1, “Serum-free cell culture media” (priority 1996, published 2005).
“Also recorded” adds a separate entry of the source. One block for each compound: values may come before it.

What was measured:
[1] = Stability of sterol against precipitation in medium; assay type: physicochemical
Protocol: The optimum sterol for cell culture should meet the following specifications: a) be stable against precipitation in medium at 37° C., b) stimulate cell growth and viability as well as does cholesterol, or better, and c) for adherent cells: produce a high surface tension in the medium for optimum adherence of the cells to the surface by hydrophobic forces.

[2] = test system: Vero, CHO-K1 and 1E6 hybridoma cells; assay: Cell growth and morphology in media containing sterols other than cholesterol (Example 8); assay type: cell-based; details: test concentration 2 μg/ml
Protocol: The basal media used were DME/F12 for adherent cells, and RPMI-X for suspension cells. The basal media were supplemented by SSR2 described above, i.e. a solution containing 20 mg/ml PLURONIC F68, about 4 mM EDTA, about 3 mM Fe, about 40 mM sodium citrate/citric acid, about 3 mM aurintricarboxylic acid and about 1% trace elements. […] For hybridoma cells, this was still further supplemented by ethanolamine at 20 μM. Each cul-ture was run in duplicate. As a control, cholesterol was also used, but in this case the basal medium was supplemented by ‘Solution Cx’ or ‘Solution Dx’ described above, as appropriate to the cell type. The negative controls referred to below were in each case a cell culture containing no test substance (sterol). Cells were cultivated through 2 passages for adherent cells, and 3 passages for the hybridoma line having regard to the greater difficulty of morphological scoring in suspension cultures, this being compensated by the longer culture period. All cultures of the same experiment were subcultured using an identical split ratio, for example 1:10; this ratio being adjusted in the individual experiments to suit the growth rate of the positive control (see above). […] Then adherent cells were trypsinized and subcultured further for the second passage—followed by counting the number of cells when confluent for the second time. Hybridoma cells, growing in suspension, were simply diluted in medium for each new passage. Counting of all kinds of cells were generally performed using a standard Bürker chamber, and viability determined by Trypan Blue exclusion (only viable cells were counted). In some experiments, where feasible, cells were counted directly in the microscope viewing field using a calibrated grid. […] The morphological index is mainly based on three properties: single cell morphology, number of cells, and the degree of uniform distribution of cells around the culture surface (‘cellular behaviour’).

1E6 Mouse hybridoma = assay: Sterol analogues in suspended cell culture (Example 8); assay type: cell-based; details: test concentration 2 μg/ml
Protocol: The basal media were supplemented by SSR2 described above, i.e. a solution containing 20 mg/ml PLURONIC F68, about 4 mM EDTA, about 3 mM Fe, about 40 mM sodium citrate/citric acid, about 3 mM aurintricarboxylic acid and about 1% trace elements. […] Each cul-ture was run in duplicate. As a control, cholesterol was also used, but in this case the basal medium was supplemented by ‘Solution Cx’ or ‘Solution Dx’ described above, as appropriate to the cell type. The negative controls referred to below were in each case a cell culture containing no test substance (sterol).

[3] = Surface tension of the medium; assay type: physicochemical
Hybridoma cells = assay: Growth promoting effect of alcohols on hybridoma cells (Example 1); assay type: cell-based, Mouse; details: for effect on cell growth (inhibition of cell growth): RPMI-SR3 protein-free medium, alcohol up to 1.0% by vol
Protocol: • a) Hybridoma cells were cultured in RPMI 1640 supplemented with solutions A and B, described above plus 20 mM ethanolamine (referred to as RPMI-SR3), and by way of comparison in the same medium further supplemented with 10 mg/ml albumen (5% by vol.) or in RPMI 1640 supplemented with 10% v/v horse serum.

adherent cells = assay: Growth stimulating effect of alcohols in adherent cell culture (Example 10); assay type: cell-based; details: concentrations around 0.1%
Excerpt: Cell culture was again carried out as described in Example 8, but with the addition of a number of alcohols rather than sterols.
Test concentration: 1×=0.1%, or 5×=0.5%.

stability in medium [1]: somewhat unstable in media
solubility in the final medium at storage temperature ([1]; 4° C., with PLURONIC F68 and ethanol): kept in solution
solubility in the final medium at cultivation temperature ([1]; 37° C., cell density below 10^5 cells/ml): gradually precipitate
SMILES: CC(C)CCC[C@@H](C)[C@H]1CC[C@H]2[C@@H]3CC=C4C[C@@H](O)CC[C@]4(C)[C@H]3CC[C@]12C [Cholesterol]

SMILES: CC(=O)O[C@H]1CC[C@@]2(C)C(=CC[C@H]3[C@@H]4CC[C@H]([C@H](C)CCCC(C)C)[C@@]4(C)CC[C@@H]32)C1 [Cholesteryl Acetate]
cell growth and viability / suitability as replacement of cholesterol [2]: barely affected
cell growth and viability / suitability as replacement of cholesterol ([2]; listed as cholesteryl acetate): good results
stability in medium [1]: stable in solution

SMILES: C[C@H](CCC(=O)O)[C@H]1CC[C@H]2[C@@H]3[C@H](O)C[C@@H]4C[C@H](O)CC[C@]4(C)[C@H]3C[C@H](O)[C@]12C [Cholic acid]
substitution for cholesterol in suspended cell culture (1E6 Mouse hybridoma): appears possible to substitute cholic acid for cholesterol
surface tension of the medium [3]: low surface tension

SMILES: CCO [Ethanol]
effect on cell growth (inhibition of cell growth) (Hybridoma cells): positive effects on cell growth
effect on cell growth (inhibition of cell growth) (Hybridoma cells; listed as ethanol): negative inhibition (i.e. promotion) of cell growth
growth promoting effect in protein or serum supplemented media (Hybridoma cells; medium with 10 mg/ml albumen or 10% v/v horse serum): no growth promoting effect; also recorded: not apparent
effects on cell growth and viability (adherent cells): positive effects on cell growth and viability

SMILES: OCCO [Ethylene Glycol]
effects on cell growth and viability (adherent cells): positive effects on cell growth and viability

SMILES: CO [Methanol]
effect on cell growth (inhibition of cell growth) (Hybridoma cells): positive effects on cell growth

SMILES: CC(O)CO (centres unmarked) [propylene glycol]
effects on cell growth and viability (adherent cells): positive effects on cell growth and viability

SMILES: CC[C@H](CC[C@@H](C)[C@H]1CC[C@H]2[C@@H]3CC=C4C[C@@H](O)CC[C@]4(C)[C@H]3CC[C@]12C)C(C)C [β-sitosterol]
cell growth and viability / suitability as replacement of cholesterol [2]: functions well as a stimulant of cell growth and viability
stability in medium [1]: less than satisfactory
